Source: patent US10206394B2, “Herbicidal compounds” (Syngenta Participations AG, priority 2014, dated 2019)
Where two headings read alike, the source gives them in different places.

How the values were obtained:
Test in all cases: Glasshouse assay for herbicidal activity (pre- and post-emergence), percentage phytotoxicity
Format in all cases: in vivo
Lolium perenne (LOLPE) = conditions: Lolium perenne
Experimental: (§1) Test—Glasshouse Assay for Herbicidal Activity
(§2) Seeds of a variety of monocotyledonous and dicotyledonous test plants are sown in standard soil in pots. The plants are cultivated for one day (for pre-emergence (PRE)) or for about 12 days (for post-emergence (POST)) under controlled conditions in a glasshouse (warm climate species at 24/18° C., cool climate species at 20/16° C., both at day/night; 16 hours light; 65% humidity).
(§3) The test plants are then grown on, in a glasshouse (greenhouse) under controlled conditions (warm climate species at 24/18° C., cool climate species at 20/16° C., both at day/night; 16 hours light; 65% humidity) and are watered twice daily. 15 days after application of the test herbicide (15 DAA) (for post-emergence), and 20 days after application of the test herbicide (20 DAA) (for pre-emergence), the test plants are evaluated visually, and an assessed percentage phytotoxicity score is given for each herbicidal application on each plant species (with 100%=total damage to plant; 0%=no damage to plant).
(§4) The plant species tested are as follows: Alopecurus myosuroides (ALOMY), Avena fatua (AVEFA), Lolium perenne (LOLPE), Echinochloa crus-galli (ECHCG).

[1] = test system: Echinochloa crus-galli (ECHCG); conditions: Echinochloa crus-galli
Experimental: as §1, §2, §3, §4

[2] = test system: Alopecurus myosuroides (ALOMY); conditions: Alopecurus myosuroides
Experimental: as §1, §2, §3, §4

Avena fatua (AVEFA) = conditions: Avena fatua
Experimental: as §1, §2, §3, §4

[3] = post-emergence, 360 h, POST-emergence, rate 250 g/ha, visual score 15 DAA (100%=total damage, 0%=no damage), read-out: Post-emergence herbicidal activity (percentage phytotoxicity) LOLPE POST
[4] = pre-emergence, 480 h, PRE-emergence, rate 250 g/ha, visual score 20 DAA (100%=total damage, 0%=no damage), read-out: Pre-emergence herbicidal activity (percentage phytotoxicity) LOLPE PRE
[5] = post-emergence, 360 h, POST-emergence, rate 250 g/ha, visual score 15 DAA (100%=total damage, 0%=no damage), read-out: Post-emergence herbicidal activity (percentage phytotoxicity) ECHCG POST
[6] = pre-emergence, 480 h, PRE-emergence, rate 250 g/ha, visual score 20 DAA (100%=total damage, 0%=no damage), read-out: Pre-emergence herbicidal activity (percentage phytotoxicity) ECHCG PRE
[7] = post-emergence, 360 h, POST-emergence, rate 250 g/ha, visual score 15 DAA (100%=total damage, 0%=no damage), read-out: Post-emergence herbicidal activity (percentage phytotoxicity) ALOMY POST
[8] = pre-emergence, 480 h, PRE-emergence, rate 250 g/ha, visual score 20 DAA (100%=total damage, 0%=no damage), read-out: Pre-emergence herbicidal activity (percentage phytotoxicity) ALOMY PRE
[9] = post-emergence, 360 h, POST-emergence, rate 250 g/ha, visual score 15 DAA (100%=total damage, 0%=no damage), read-out: Post-emergence herbicidal activity (percentage phytotoxicity) AVEFA POST
[10] = pre-emergence, 480 h, PRE-emergence, rate 250 g/ha, visual score 20 DAA (100%=total damage, 0%=no damage), read-out: Pre-emergence herbicidal activity (percentage phytotoxicity) AVEFA PRE
[11] = post-emergence, 360 h, 250 g/ha, post-emergence, 15 DAA, visual assessment (100%=total damage, 0%=no damage), read-out: Post-emergence herbicidal activity (percentage phytotoxicity) LOLPE POST
[12] = pre-emergence, 480 h, 250 g/ha, pre-emergence, 20 DAA, visual assessment (100%=total damage, 0%=no damage), read-out: Pre-emergence herbicidal activity (percentage phytotoxicity) LOLPE PRE
[13] = post-emergence, 360 h, 250 g/ha, post-emergence, 15 DAA, visual assessment (100%=total damage, 0%=no damage), read-out: Post-emergence herbicidal activity (percentage phytotoxicity) ECHCG POST
[14] = pre-emergence, 480 h, 250 g/ha, pre-emergence, 20 DAA, visual assessment (100%=total damage, 0%=no damage), read-out: Pre-emergence herbicidal activity (percentage phytotoxicity) ECHCG PRE
[15] = post-emergence, 360 h, 250 g/ha, post-emergence, 15 DAA, visual assessment (100%=total damage, 0%=no damage), read-out: Post-emergence herbicidal activity (percentage phytotoxicity) ALOMY POST
[16] = pre-emergence, 480 h, 250 g/ha, pre-emergence, 20 DAA, visual assessment (100%=total damage, 0%=no damage), read-out: Pre-emergence herbicidal activity (percentage phytotoxicity) ALOMY PRE
[17] = post-emergence, 360 h, 250 g/ha, post-emergence, 15 DAA, visual assessment (100%=total damage, 0%=no damage), read-out: Post-emergence herbicidal activity (percentage phytotoxicity) AVEFA POST
[18] = pre-emergence, 480 h, 250 g/ha, pre-emergence, 20 DAA, visual assessment (100%=total damage, 0%=no damage), read-out: Pre-emergence herbicidal activity (percentage phytotoxicity) AVEFA PRE
[19] = post-emergence, 360 h, Rate 250 g/ha, post-emergence, visual assessment 15 DAA, 100%=total damage, 0%=no damage, read-out: Post-emergence herbicidal activity (percentage phytotoxicity) LOLPE POST
[20] = pre-emergence, 480 h, Rate 250 g/ha, pre-emergence, visual assessment 20 DAA, 100%=total damage, 0%=no damage, read-out: Pre-emergence herbicidal activity (percentage phytotoxicity) LOLPE PRE
[21] = post-emergence, 360 h, Rate 250 g/ha, post-emergence, visual assessment 15 DAA, 100%=total damage, 0%=no damage, read-out: Post-emergence herbicidal activity (percentage phytotoxicity) ECHCG POST
[22] = pre-emergence, 480 h, Rate 250 g/ha, pre-emergence, visual assessment 20 DAA, 100%=total damage, 0%=no damage, read-out: Pre-emergence herbicidal activity (percentage phytotoxicity) ECHCG PRE
[23] = post-emergence, 360 h, Rate 250 g/ha, post-emergence, visual assessment 15 DAA, 100%=total damage, 0%=no damage, read-out: Post-emergence herbicidal activity (percentage phytotoxicity) ALOMY POST
[24] = pre-emergence, 480 h, Rate 250 g/ha, pre-emergence, visual assessment 20 DAA, 100%=total damage, 0%=no damage, read-out: Pre-emergence herbicidal activity (percentage phytotoxicity) ALOMY PRE
[25] = post-emergence, 360 h, Rate 250 g/ha, post-emergence, visual assessment 15 DAA, 100%=total damage, 0%=no damage, read-out: Post-emergence herbicidal activity (percentage phytotoxicity) AVEFA POST
[26] = pre-emergence, 480 h, Rate 250 g/ha, pre-emergence, visual assessment 20 DAA, 100%=total damage, 0%=no damage, read-out: Pre-emergence herbicidal activity (percentage phytotoxicity) AVEFA PRE

Structure (SMILES)	pest or weed control at 250 g/ha (Lolium perenne (LOLPE); [3]) [%]	pest or weed control at 250 g/ha (Lolium perenne (LOLPE); [4]) [%]	pest or weed control at 250 g/ha [1, 5] [%]	pest or weed control at 250 g/ha [1, 6] [%]	pest or weed control at 250 g/ha [2, 7] [%]	pest or weed control at 250 g/ha [2, 8] [%]	pest or weed control at 250 g/ha (Avena fatua (AVEFA); [9]) [%]	pest or weed control at 250 g/ha (Avena fatua (AVEFA); [10]) [%]	also measured
Cc1cc(-c2ncc(F)cn2)cc(C)c1C1C(=O)CC(CC(=O)NC2CC2(F)F)C1=O (stereo not shown) [Compound B292]	90	70	100	100	100	100	100	90	
Cc1cc(C)c(C2C(=O)CC(CC(=O)NC/C=C/Br)C2=O)c(C)c1 (stereo not shown) [Compound B115]									pest or weed control at 250 g/ha (Lolium perenne (LOLPE); [11]): 100%; pest or weed control at 250 g/ha (Lolium perenne (LOLPE); [12]): 100%; pest or weed control at 250 g/ha [1, 13]: 90%; pest or weed control at 250 g/ha [1, 14]: 100%; pest or weed control at 250 g/ha [2, 15]: 80%; pest or weed control at 250 g/ha [2, 16]: 80%; pest or weed control at 250 g/ha (Avena fatua (AVEFA); [17]): 80%; pest or weed control at 250 g/ha (Avena fatua (AVEFA); [18]): 50%
C=CC(C)NC(=O)CC1CC(=O)C(c2c(C)cc(-n3cc(Cl)cn3)cc2C)C1=O (stereo not shown) [Compound B316]	90	80	100	90	90	90	100	80	
Cc1cc(-c2ncc(F)cn2)cc(C)c1C1C(=O)CC(CC(=O)NC2CC2F)C1=O (stereo not shown) [Compound B293]	90	90	100	90	100	90	100	60	
C/C=C/c1cc(C)c(C2C(=O)CC(CC(=O)NCc3cccc(Cl)c3)C2=O)c(CC)c1 (stereo not shown) [Compound B187]	90	80	100	80	70	70	70	10	
Cc1cc(C)c(C2C(=O)CC(CC(=O)NCC(F)F)C2=O)c(C)c1 (stereo not shown) [Compound B57]									pest or weed control at 250 g/ha (Lolium perenne (LOLPE); [11]): 80%; pest or weed control at 250 g/ha (Lolium perenne (LOLPE); [12]): 80%; pest or weed control at 250 g/ha [1, 13]: 80%; pest or weed control at 250 g/ha [1, 14]: 90%; pest or weed control at 250 g/ha [2, 15]: 70%; pest or weed control at 250 g/ha [2, 16]: 70%; pest or weed control at 250 g/ha (Avena fatua (AVEFA); [17]): 80%; pest or weed control at 250 g/ha (Avena fatua (AVEFA); [18]): 20%
COCC(C)NC(=O)CC1CC(=O)C(c2c(C)cc(-n3cc(Cl)cn3)cc2C)C1=O (stereo not shown) [Compound B309]	60	80	100	100	100	90	100	80	
CCNC(=O)CC1CC(=O)C(c2c(C)cc(-c3ncc(Cl)cn3)cc2C)C1=O (stereo not shown) [Compound B305]	100	100	100	100	100	100	100	100	
Cc1cc(-c2ccc(C#N)cn2)cc(C)c1C1C(=O)CC(CC(=O)N2CCOCC2)C1=O (stereo not shown) [Compound B321]	90	90	100	100	90	70	100	80	
C#Cc1cc(-c2ncc(F)cc2F)cc(C)c1C1C(=O)CC(CC(=O)NC(C)(C)C)C1=O (stereo not shown) [Compound B381, N-tert-butyl-2-[3-[4-(3,5-difluoro-2-pyridyl)-2-ethynyl-6-methyl-phenyl]-2,4-dioxo-cyclopentyl]acetamide]									pest or weed control at 250 g/ha (Lolium perenne (LOLPE); [19]): 100%; pest or weed control at 250 g/ha (Lolium perenne (LOLPE); [20]): 90%; pest or weed control at 250 g/ha [1, 21]: 100%; pest or weed control at 250 g/ha [1, 22]: 70%; pest or weed control at 250 g/ha [2, 23]: 100%; pest or weed control at 250 g/ha [2, 24]: 70%; pest or weed control at 250 g/ha (Avena fatua (AVEFA); [25]): 100%; pest or weed control at 250 g/ha (Avena fatua (AVEFA); [26]): 70%
COCC(C)NC(=O)CC1CC(=O)C(c2c(C)cc(-c3ccc(Cl)cn3)cc2C)C1=O (stereo not shown) [Compound B366]									pest or weed control at 250 g/ha (Lolium perenne (LOLPE); [19]): 90%; pest or weed control at 250 g/ha (Lolium perenne (LOLPE); [20]): 100%; pest or weed control at 250 g/ha [1, 21]: 100%; pest or weed control at 250 g/ha [1, 22]: 100%; pest or weed control at 250 g/ha [2, 23]: 90%; pest or weed control at 250 g/ha [2, 24]: 100%; pest or weed control at 250 g/ha (Avena fatua (AVEFA); [25]): 100%; pest or weed control at 250 g/ha (Avena fatua (AVEFA); [26]): 100%
